The target in the assay is human TRPA1 (Homo sapiens (Human), UniProt O75762). The experiment in a line: Measurement of TRPA1 antagonist activity (2): as (1), different lot of human TRPA1 expression plasmid. It is filed as cell-based. As to conditions: 293T cells transfected with human TRPA1, allylisothiocyanate 20 μM stimulation, calcium fluorescence, read-out: hTRPA1 IC50. The gist of the method:
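HEK293T cells transiently transfected with human TRPA1 plasmid (different lot), loaded with Calcium4 dye in HBSS/20 mM HEPES pH 7.2. Test compound preincubated 10 min, then allylisothiocyanate added at 20 μM final and fluorescence change read for 5 min. IC50 from sigmoid fit of inhibition relative to AITC-alone and buffer controls.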
human TRPA1, sequence (O75762 whole entry): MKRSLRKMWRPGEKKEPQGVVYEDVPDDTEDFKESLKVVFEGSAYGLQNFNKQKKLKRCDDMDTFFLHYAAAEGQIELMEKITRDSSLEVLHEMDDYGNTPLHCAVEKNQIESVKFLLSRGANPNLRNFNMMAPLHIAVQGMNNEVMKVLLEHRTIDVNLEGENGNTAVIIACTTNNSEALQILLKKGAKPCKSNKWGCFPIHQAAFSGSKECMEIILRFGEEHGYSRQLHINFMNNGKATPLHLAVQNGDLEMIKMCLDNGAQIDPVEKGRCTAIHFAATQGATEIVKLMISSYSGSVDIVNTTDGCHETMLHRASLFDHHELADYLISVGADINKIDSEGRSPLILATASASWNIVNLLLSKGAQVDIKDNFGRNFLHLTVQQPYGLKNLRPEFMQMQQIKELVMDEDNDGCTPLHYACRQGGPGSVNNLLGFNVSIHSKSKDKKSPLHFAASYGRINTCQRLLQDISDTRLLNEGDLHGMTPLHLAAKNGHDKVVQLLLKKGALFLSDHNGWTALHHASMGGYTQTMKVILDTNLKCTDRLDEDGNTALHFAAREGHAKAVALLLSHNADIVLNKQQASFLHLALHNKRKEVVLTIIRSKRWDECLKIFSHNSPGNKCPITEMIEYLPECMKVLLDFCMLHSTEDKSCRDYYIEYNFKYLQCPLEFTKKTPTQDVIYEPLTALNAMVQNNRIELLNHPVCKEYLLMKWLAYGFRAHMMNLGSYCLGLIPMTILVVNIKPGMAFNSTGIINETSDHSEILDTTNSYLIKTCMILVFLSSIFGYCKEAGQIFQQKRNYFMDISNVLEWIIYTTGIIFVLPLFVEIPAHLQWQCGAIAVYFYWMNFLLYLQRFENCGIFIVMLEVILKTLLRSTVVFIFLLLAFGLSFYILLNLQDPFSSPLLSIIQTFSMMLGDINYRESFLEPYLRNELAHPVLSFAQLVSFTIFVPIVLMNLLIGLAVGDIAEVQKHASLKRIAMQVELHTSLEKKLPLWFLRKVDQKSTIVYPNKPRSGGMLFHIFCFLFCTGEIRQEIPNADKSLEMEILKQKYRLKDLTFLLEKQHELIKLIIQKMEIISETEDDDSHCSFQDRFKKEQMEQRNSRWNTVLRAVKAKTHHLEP
Take `O=C(NCc1cc(-c2cnc(C(F)(F)F)nc2)ncn1)[C@@H]1CCN1S(=O)(=O)c1cc2cc(F)ccc2o1` [Example 387, (2S)-1-(5-fluorobenzofuran-2-yl)sulfonyl-N-[[6-[2-(trifluoromethyl)pyrimidin-5-yl]pyrimidin-4-yl]methyl]azetidine-2-carboxamide]: the IC50 turned out to be 55 nM. Regarding `O=C(NCc1cc(-c2ccc(C(F)(F)F)nc2)ncn1)[C@@H]1CCN1S(=O)(=O)c1cc2cc(F)ccc2o1` [Example 388, (2S)-1-(5-fluorobenzofuran-2-yl)sulfonyl-N-[[6-[6-(trifluoromethyl)-3-pyridyl]pyrimidin-4-yl]methyl]azetidine-2-carboxamide], the IC50 turned out to be 2.7 nM.

`O=C(NCc1cc(-c2cnc(C(F)(F)F)nc2)ccn1)[C@@H]1CCN1S(=O)(=O)c1cc2cc(F)ccc2o1` [Example 389, (2S)-1-(5-fluorobenzofuran-2-yl)sulfonyl-N-[[4-[2-(trifluoromethyl)pyrimidin-5-yl]-2-pyridyl]methyl]azetidine-2-carboxamide]: the IC50 came out at 11 nM. `O=C(NCc1ccc(O)c(-c2cnc(C(F)(F)F)cn2)c1)[C@@H]1CCN1S(=O)(=O)c1cc2cc(F)ccc2o1` [Example 390, (2S)-1-(5-fluorobenzofuran-2-yl)sulfonyl-N-[[4-hydroxy-3-[5-(trifluoromethyl)pyrazin-2-yl]phenyl]methyl]azetidine-2-carboxamide]: the IC50 came to 9.3 nM.

With `O=C(NCc1cc(-c2ccc(C(F)(F)F)cn2)cnn1)[C@@H]1CCN1S(=O)(=O)c1cc2cc(F)ccc2o1` [Example 391, (2S)-1-(5-fluorobenzofuran-2-yl)sulfonyl-N-[[5-[5-(trifluoromethyl)-2-pyridyl]pyridazin-3-yl]methyl]azetidine-2-carboxamide], the IC50 amounted to 26 nM.

For `O=C(NCc1cccc(-c2cnc(C(F)(F)F)cn2)c1)[C@@H]1CCN1S(=O)(=O)c1cc2cc(F)ccc2o1` [Example 392, (2S)-1-(5-fluorobenzofuran-2-yl)sulfonyl-N-[[3-[5-(trifluoromethyl)pyrazin-2-yl]phenyl]methyl]azetidine-2-carboxamide], the IC50 was determined as 4.6 nM. Under `O=C(NCc1cc(-c2cnc(C(F)(F)F)cn2)ccn1)[C@@H]1CCN1S(=O)(=O)c1cc2cc(F)ccc2o1` [Example 393, (2S)-1-(5-fluorobenzofuran-2-yl)sulfonyl-N-[[4-[5-(trifluoromethyl)pyrazin-2-yl]-2-pyridyl]methyl]azetidine-2-carboxamide] stands 9.1 nM. With `O=C(NCc1cc(-c2ncc(C(F)(F)F)cn2)ccn1)[C@@H]1CCN1S(=O)(=O)c1cc2cc(F)ccc2o1` [Example 394, (2S)-1-(5-fluorobenzofuran-2-yl)sulfonyl-N-[[4-[5-(trifluoromethyl)pyrimidin-2-yl]-2-pyridyl]methyl]azetidine-2-carboxamide] the figure was 11 nM; with `O=C(NCc1cc(-c2ccc(OC(F)(F)F)cc2)ncn1)[C@@H]1CCN1S(=O)(=O)c1cc2cc(F)ccc2o1` [Example 395], 3.2 nM; with `O=C(NCc1cc(-c2ccc(C(F)(F)F)cn2)cnn1)[C@@H]1CCCN1S(=O)(=O)c1cc2cc(F)ccc2o1` [Example 396, (2S)-1-(5-fluorobenzofuran-2-yl)sulfonyl-N-[[5-[5-(trifluoromethyl)-2-pyridyl]pyridazin-3-yl]methyl]pyrrolidine-2-carboxamide], 7.6 nM. Turning to `CN(C)c1nc(CNC(=O)[C@@H]2CCCN2S(=O)(=O)c2cc3cc(F)ccc3o2)cc(-c2ccc(C(F)(F)F)cc2O)n1` [Example 397, (2S)-N-[[2-(dimethylamino)-6-[2-hydroxy-4-(trifluoromethyl)phenyl]-pyrimidin-4-yl]methyl]-1-(5-fluorobenzofuran-2-yl)sulfonyl-pyrrolidine-2-carboxamide], the IC50 worked out at 6.8 nM.

Turning to `CN(C)c1nc(CNC(=O)[C@@H]2CCN2S(=O)(=O)c2cc3cc(F)ccc3o2)cc(-c2ccc(C(F)(F)F)cc2O)n1` [Example 398, (2S)-N-[[2-(dimethylamino)-6-[2-hydroxy-4-(trifluoromethyl)phenyl]-pyrimidin-4-yl]methyl]-1-(5-fluorobenzofuran-2-yl)sulfonyl-azetidine-2-carboxamide], the IC50 came out at 21 nM.

With `O=C(NCc1cccc(-c2cnc(C(F)(F)F)cn2)c1)[C@@H]1CCCN1S(=O)(=O)c1cc2cc(F)ccc2o1` [Example 399, (2S)-1-(5-fluorobenzofuran-2-yl)sulfonyl-N-[[3-[5-(trifluoromethyl)pyrazin-2-yl]phenyl]methyl]pyrrolidine-2-carboxamide], the IC50 stood at 2.5 nM. Under `O=C(NCc1cc(-c2ccc(C(F)(F)F)cn2)ncn1)[C@@H]1CCCN1S(=O)(=O)c1cc2cc(F)ccc2o1` [Example 400, (2S)-1-(5-fluorobenzofuran-2-yl)sulfonyl-N-[[6-[5-(trifluoromethyl)-2-pyridyl]pyrimidin-4-yl]methyl]pyrrolidine-2-carboxamide] stands 5.2 nM. Take `O=C(NCc1cc(-c2ccc(C(F)(F)F)cn2)ncn1)[C@@H]1CCN1S(=O)(=O)c1cc2cc(F)ccc2o1` [Example 401, (2S)-1-(5-fluorobenzofuran-2-yl)sulfonyl-N-[[6-[5-(trifluoromethyl)-2-pyridyl]pyrimidin-4-yl]methyl]azetidine-2-carboxamide]: the IC50 stood at 12 nM. Under `O=C(NCc1ccnc(-c2cnc(C(F)(F)F)nc2)c1)[C@@H]1CCCN1S(=O)(=O)c1cc2cc(F)ccc2o1` [Example 402, (2S)-1-(5-fluorobenzofuran-2-yl)sulfonyl-N-[[2-[2-(trifluoromethyl)pyrimidin-5-yl]-4-pyridyl]methyl]pyrrolidine-2-carboxamide] stands 3.5 nM; under `O=C(NCc1ccnc(-c2cnc(C(F)(F)F)nc2)c1)[C@@H]1CCN1S(=O)(=O)c1cc2cc(F)ccc2o1` [Example 403, (2S)-1-(5-fluorobenzofuran-2-yl)sulfonyl-N-[[2-[2-(trifluoromethyl)pyrimidin-5-yl]-4-pyridyl]methyl]azetidine-2-carboxamide], 13 nM. Under `O=C(NCc1ccc(O)c(-c2ccc(C(F)(F)F)cn2)c1)[C@@H]1CCN1S(=O)(=O)c1cc2cc(F)ccc2o1` [Example 404, (2S)-1-(5-fluorobenzofuran-2-yl)sulfonyl-N-[[4-hydroxy-3-[5-(trifluoromethyl)-2-pyridyl]phenyl]methyl]azetidine-2-carboxamide] stands 9.7 nM; under `O=C(NCc1cc(-c2cnc(C(F)(F)F)cn2)ccn1)[C@@H]1CCCN1S(=O)(=O)c1cc2cc(F)ccc2o1` [Example 405, (2S)-1-(5-fluorobenzofuran-2-yl)sulfonyl-N-[[4-[5-(trifluoromethyl)pyrazin-2-yl]-2-pyridyl]methyl]pyrrolidine-2-carboxamide], 3.5 nM; under `O=C(NCc1cc(-c2ccc(OC(F)(F)F)cc2)ncn1)[C@@H]1CCCN1S(=O)(=O)c1cc2cc(F)ccc2o1` [Example 406, (2S)-1-(5-fluorobenzofuran-2-yl)sulfonyl-N-[[6-[4-(trifluoromethoxy)phenyl]-pyrimidin-4-yl]methyl]pyrrolidine-2-carboxamide], 2.7 nM. On to `O=C(NCc1cc(-c2ncc(C(F)(F)F)cn2)ccn1)[C@@H]1CCCN1S(=O)(=O)c1cc2cc(F)ccc2o1` [Example 407, (2S)-1(5-fluorobenzofuran-2-yl)sulfonyl-N-[[4-[5-(trifluoromethyl)pyrimidin-2-yl]-2-pyridyl]methyl]pyrrolidine-2-carboxamide], for which the IC50 was 7 nM. With `O=C(NCc1cc(-c2ccc(C(F)(F)F)nc2)ncn1)[C@@H]1CCN1S(=O)(=O)c1cc2ccccc2o1` [Example 408, (2S)-1-(benzofuran-2-ylsulfonyl)-N-[[6-[6-(trifluonomethyl)-3-pyridyl]pyrimidin-4-yl]methyl]azetidine-2-carboxamide] the figure was 16 nM; with `O=C(NCc1cc(-c2cnc(C(F)(F)F)nc2)ncn1)[C@@H]1CCN1S(=O)(=O)c1cc2ccccc2o1` [Example 409, (2S)-1-(benzofuran-2-ylsulfonyl)-N-[[6-[2-(trifluoromethyl)pyrimidin-5-yl]pyrimidin-4-yl]methyl]azetidine-2-carboxamide], 29 nM; with `CN(C)c1nc(CNC(=O)[C@@H]2CCN2S(=O)(=O)c2cc3ccccc3o2)cc(-c2ccc(C(F)(F)F)nc2)n1` [Example 410, (2S)-1-(benzofuran-2-ylsulfonyl)-N-[[2-(dimethylamino)-6-[6-(trifluoromethyl)-3-pyridyl]pyrimidin-4-yl]methyl]azetidine-2-carboxamide], 38 nM. Regarding `O=C(NCc1ccnc(-c2ccc(C(F)(F)F)cc2O)c1)[C@@H]1CCN1S(=O)(=O)c1cc2ccccc2o1` [Example 411, (2S)-1-(benzofuran-2-ylsulfonyl)-N-[[2-[2-hydroxy-4-(trifluoromethyl)phenyl]-4-pyridyl]methyl]azetidine-2-carboxamide], the IC50 was 25 nM. As for `O=C(NCc1cc(-c2ccc(C(F)(F)F)cc2O)ncn1)[C@@H]1CCN1S(=O)(=O)c1cc2cc(F)ccc2o1` [Example 412, (2S)-1-(5-fluorobenzofuran-2-yl)sulfonyl-N-[[6-[2-hydroxy-4-(trifluoromethyl)phenyl]pyrimidin-4-yl]methyl]azetidine-2-carboxamide], the IC50 was 2.7 nM.

As to `CC(C)N(CC(=O)NCc1cc(-c2ccc(C(F)(F)F)cc2O)ncn1)S(=O)(=O)c1cc2cc(F)ccc2o1` [Example 413, 2-[(5-fluorobenzofuran-2-yl)sulfonyl-isopropyl-amino]-N-[[6-[2-hydroxy-4-(trifluoromethyl)phenyl]pyrimidin-4-yl]methyl]acetamide], the IC50 amounted to 12 nM. Under `C[C@H](NS(=O)(=O)c1cc2cnccc2o1)C(=O)NCc1cc(-c2ccc(C(F)(F)F)cc2O)ncn1` [Example 414, (2S)-2-(furo[3,2-c]pyridin-2-ylsulfonylamino)-N-[[6-[2-hydroxy-4-(trifluoromethyl)phenyl]pyrimidin-4-yl]methyl]propanamide] stands 34 nM.

As a reminder, the IC50 is the concentration needed to halve the response being measured.

(Values after patent US10626112B2, “Heterocyclic sulfonamide derivative and medicine comprising same” (EA PHARMA CO., LTD., priority 2014, dated 2020).)
